The nature of experiment [1]: Antiproliferative activity against human KATO III cells incubated for 72 hrs by MTT assay. For orientation: Tetrazolium assays rely on reduction of a dye to a coloured formazan, in cell work by metabolically active cells.
The test system of experiment [2] is SNU-16. As to the kind of experiment: Antiproliferative activity against human SNU-16 cells incubated for 72 hrs by MTT assay. To be noted: SNU-16, 72 h.
In experiment [3] the test system is SNU-16. The experiment in a line: Antitumor activity against human SNU-16 cells xenografted in BALB/c mouse at 20 mg/kg, ip qd for 25 days relative to control. The note with it: SNU-16, 600 h, read-out: TGI. In general terms: In xenograft studies the graft and the host belong to different species.
A short description of experiment [4]: cells. To be noted: Homo sapiens, KATO III, 24 h, read-out: Activity.
Description: Induction of apoptosis in human KATO III cells assessed as viable cells at 500 nM incubated for 24 hrs by Annexin V-FITC/PI staining based flow cytometry (Rvb = 87.00 %)
A short description of experiment [5]: cells. To be noted: Homo sapiens, KATO III, 24 h, read-out: Activity. This is another data set of the same source.
Description: Induction of apoptosis in human KATO III cells assessed as viable cells at 1000 nM incubated for 24 hrs by Annexin V-FITC/PI staining based flow cytometry (Rvb = 87.00 %)
Experiment [6] concerns SNU-16. As to the kind of experiment: cells. The note with it: Homo sapiens, SNU-16, 24 h, read-out: Activity.
Description: Induction of apoptosis in human SNU-16 cells assessed as viable cells at 500 nM incubated for 24 hrs by Annexin V-FITC/PI staining based flow cytometry (Rvb = 77.12 %)
For experiment [7], the system named is SNU-16. As to the kind of experiment: cells. The note with it: Homo sapiens, SNU-16, 24 h, read-out: Activity. The source holds these as a separate data set.
Description: Induction of apoptosis in human SNU-16 cells assessed as viable cells at 1000 nM incubated for 24 hrs by Annexin V-FITC/PI staining based flow cytometry (Rvb = 77.12 %)

By IC50 is commonly meant the concentration that gives 50% inhibition. As for `COc1cc(OC)cc(N(CCNC(C)C)c2ccc3ncc(-c4cnn(CCC(=O)NCC(=O)NCCNc5cccc6c5C(=O)N(C5CCC(=O)NC5=O)C6=O)c4)nc3c2)c1` (centres undefined), the IC50 in experiment [1] amounted to 457 nM; in the experiment on SNU-16 [2], 150 nM.

`COc1cc(OC)cc(N(CCNC(C)C)c2ccc3ncc(-c4cnn(CCCC(=O)NCCNc5cccc6c5C(=O)N(C5CCC(=O)NC5=O)C6=O)c4)nc3c2)c1` (centres undefined): the results for the IC50 (in experiment [1]; in the experiment on SNU-16 [2]) were 172 nM and 234 nM, respectively.

`COc1cc(OC)cc(N(CCNC(C)C)c2ccc3ncc(-c4cnn(CCCCCC(=O)NCC(=O)NCCNc5cccc6c5C(=O)N(C5CCC(=O)NC5=O)C6=O)c4)nc3c2)c1` (centres undefined): the values for the IC50 (in experiment [1]; in the experiment on SNU-16 [2]) were 595 nM and 1 nM, respectively.

As for `COc1cc(OC)cc(N(CCNC(C)C)c2ccc3ncc(-c4cnn(CC(=O)NCC(=O)NCCNc5cccc6c5C(=O)N(C5CCC(=O)NC5=O)C6=O)c4)nc3c2)c1` (centres undefined), the IC50 in experiment [1] is 523 nM; with SNU-16 [2], 65 nM.

For the compound `COc1cc(OC)cc(N(CCNC(C)C)c2ccc3ncc(-c4cnn(CCOCC(=O)NCCNc5cccc6c5C(=O)N(C5CCC(=O)NC5=O)C6=O)c4)nc3c2)c1` (centres undefined), the IC50 came out at 388 nM in experiment [1] and 23 nM with SNU-16 [2].

In the case of `COc1cc(OC)cc(N(CCNC(C)C)c2ccc3ncc(-c4cnn(CCCCCCC(=O)NCC(=O)NCCNc5cccc6c5C(=O)N(C5CCC(=O)NC5=O)C6=O)c4)nc3c2)c1` (centres undefined), the IC50 (in experiment [1]; in the experiment on SNU-16 [2]) was 1 nM throughout.

Turning to `COc1cc(OC)cc(N(CCNC(C)C)c2ccc3ncc(-c4cnn(CCOCCOCC(=O)NCCNc5cccc6c5C(=O)N(C5CCC(=O)NC5=O)C6=O)c4)nc3c2)c1` (centres undefined), the IC50 came out at 208 nM in experiment [1] and 1 nM with SNU-16 [2].

Take `COc1cc(OC)cc(N(CCNC(C)C)c2ccc3ncc(-c4cnn(CCCCCCCCCC(=O)NCCNc5cccc6c5C(=O)N(C5CCC(=O)NC5=O)C6=O)c4)nc3c2)c1` (centres undefined): the half-maximal inhibitory concentration (IC50) is 2 nM in experiment [1] and under 0.17 nM in the experiment with SNU-16 [2].

Turning to `COc1cc(OC)cc(N(CCNC(C)C)c2ccc3ncc(-c4cnn(CCCCCC(=O)NCCNc5cccc6c5C(=O)N(C5CCC(=O)NC5=O)C6=O)c4)nc3c2)c1` (centres undefined), the IC50 in experiment [1] was 51 nM; in the experiment with SNU-16 [2], 1 nM.

In the case of `COc1cc(OC)cc(N(CCNC(C)C)c2ccc3ncc(-c4cnn(CCC(=O)NCCNc5cccc6c5C(=O)N(C5CCC(=O)NC5=O)C6=O)c4)nc3c2)c1` (centres undefined), the values for the IC50 (in experiment [1]; in the experiment with SNU-16 [2]) were 701 nM and 153 nM, respectively.

`COc1cc(OC)cc(N(CCNC(C)C)c2ccc3ncc(-c4cnn(CCOCCOCCOCC(=O)NCCNc5cccc6c5C(=O)N(C5CCC(=O)NC5=O)C6=O)c4)nc3c2)c1` (centres undefined): the IC50 in experiment [1] came to 140 nM; in the experiment with SNU-16 [2] it was 1 nM.

On to `COc1cc(OC)cc(N(CCNC(C)C)c2ccc3ncc(-c4cnn(CCOCCOCCOCCOCC(=O)NCCNc5cccc6c5C(=O)N(C5CCC(=O)NC5=O)C6=O)c4)nc3c2)c1` (centres undefined), for which the results for the IC50 (in experiment [1]; in the experiment on SNU-16 [2]) were 158 nM and 10 nM, respectively.

Take `COc1cc(OC)cc(N(CCNC(C)C)c2ccc3ncc(-c4cnn(CCCCCCCC(=O)NCCNc5cccc6c5C(=O)N(C5CCC(=O)NC5=O)C6=O)c4)nc3c2)c1` (centres undefined): the IC50 (in experiment [1]; in the experiment with SNU-16 [2]) was under 0.17 nM throughout.

For the compound `COc1cc(OC)cc(N(CCNC(C)C)c2ccc3ncc(-c4cnn(CCCC(=O)NCC(=O)NCCNc5cccc6c5C(=O)N(C5CCC(=O)NC5=O)C6=O)c4)nc3c2)c1` (centres undefined), the IC50 in experiment [1] turned out to be 2 nM; in the experiment on SNU-16 [2] it was 22 nM.

Consider `COc1cc(OC)cc(N(CCNC(C)C)c2ccc3ncc(-c4cnn(C)c4)nc3c2)c1` [ERDAFITINIB], for which the IC50 was found to be 4 nM in experiment [1] and 1 nM in the experiment with SNU-16 [2]. Further, the inhibition in vivo at 20 mg/kg in the experiment on SNU-16 [3] came to 104%. Moreover, the viability at 0.5 µM in “cells [4]” was determined as 70.7%; in the experiment on SNU-16 [6], 49.9%. In addition, the viability at 1 µM in the experiment “cells [5]” is 69.1%; with SNU-16 [7], 47.8%.

For the compound `COc1cc(OC)cc(N(CCNC(C)C)c2ccc3ncc(-c4cnn(CC(=O)NCCNc5cccc6c5C(=O)N(C5CCC(=O)NC5=O)C6=O)c4)nc3c2)c1` (centres undefined), the IC50 in experiment [1] came out at 463 nM; in the experiment with SNU-16 [2], 48 nM.

Regarding `COc1cc(OC)cc(N(CCNC(C)C)c2ccc3ncc(-c4cnn(CCCCCCCCC(=O)NCCNc5cccc6c5C(=O)N(C5CCC(=O)NC5=O)C6=O)c4)nc3c2)c1` (centres undefined), the IC50 (in experiment [1]; with SNU-16 [2]) was under 0.17 nM each time.
